Test results from the NIST ThermoML archive (doi:10.1021/je800888n).

How the values were obtained:
[1] = Liquid, Closed cell (Static) method
[2] = excess molar enthalpy (molar enthalpy of mixing); xn = mol fraction of the nth substance listed; conditions: 323.15 K, 101 kPa, Liquid, Flow calorimetry

CCCC(=O)O [butanoic acid]
[1]
Conditions	vapor or sublimation pressure [kPa]
273.15 K	0.0137
283.15 K	0.0324
293.15 K	0.0725
293.29 K	0.072
298.15 K	0.1063
298.25 K	0.1052
303.15 K	0.1541
303.28 K	0.1545
313.15 K	0.3128
313.22 K	0.3155
323.15 K	0.6084
323.2 K	0.6183
333.15 K	1.138
333.18 K	1.153
343.15 K	2.055
343.18 K	2.073
353.1 K	3.582
353.15 K	3.593
363.08 K	5.973
363.15 K	6.095

CCCC(=O)O [butanoic acid] + Cc1ccccc1
[2]
Conditions	excess molar enthalpy [kcal/mol]
x1 = 0.0289	0.00659
x1 = 0.0576	0.00663
x1 = 0.1144	0.00368
x1 = 0.1702	-0.000361
x1 = 0.2251	-0.00433
x1 = 0.2792	-0.00731
x1 = 0.3325	-0.0104
x1 = 0.3849	-0.0129
x1 = 0.4366	-0.0149
x1 = 0.4874	-0.0163
x1 = 0.5375	-0.0174
x1 = 0.5869	-0.0176
x1 = 0.6355	-0.0169
x1 = 0.6834	-0.0161
x1 = 0.7306	-0.0147
x1 = 0.7771	-0.013
x1 = 0.823	-0.0107
x1 = 0.8682	-0.00798
x1 = 0.9127	-0.00545
x1 = 0.9567	-0.00251
x1 = 0.9784	-0.00114

Cc1ccccc1 [toluene]
[1]
Conditions	vapor or sublimation pressure [kPa]
253.83 K	0.2392
263.64 K	0.4837
273.15 K	0.9082
273.47 K	0.9254
283.15 K	1.666
283.32 K	1.68
293.15 K	2.911
293.24 K	2.925
293.26 K	2.925
298.15 K	3.785
298.25 K	3.803
303.15 K	4.872
303.23 K	4.894
313.15 K	7.848
313.19 K	7.872
313.22 K	7.874
323.15 K	12.22
323.22 K	12.24
333.15 K	18.45
333.2 K	18.57
343.15 K	27.1
343.16 K	27.2
353.13 K	38.84
353.15 K	38.84
363.08 K	54.13
363.15 K	54.42
